Data: PubChem BioAssay (NCI)
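Growth conditions: 96-well plates. Treatment: test compound, 48 hours, 5 concentrations. Analysis: linear interpolation between bracketing concentrations; unreached endpoints set to highest concentration. The concentration for full growth arrest is given as TGI.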

Assays:
Experiment in all cases: inhibition of tumour cell growth, NCI panel, 48 h
ACHN renal = tested on: ACHN renal
HCC-2998 colon = tested on: HCC-2998 colon
SNB-75 CNS = tested on: SNB-75 CNS
NCI/ADR-RES ovarian = tested on: NCI/ADR-RES ovarian
BT-549 breast = tested on: BT-549 breast
TK-10 renal = tested on: TK-10 renal
NCI-H226 lung = tested on: NCI-H226 lung
K-562 leukemia = tested on: K-562 leukemia
OVCAR-8 ovarian = tested on: OVCAR-8 ovarian
KM12 colon = tested on: KM12 colon
HOP-62 NSCLC = tested on: HOP-62 NSCLC
SK-OV-3 ovarian = tested on: SK-OV-3 ovarian
SNB-19 CNS = tested on: SNB-19 CNS
SK-MEL-2 melanoma = tested on: SK-MEL-2 melanoma
HT29 colon = tested on: HT29 colon
UO-31 renal = tested on: UO-31 renal
MDA-MB-435 = tested on: MDA-MB-435
SF-268 CNS = tested on: SF-268 CNS
DU-145 prostate = tested on: DU-145 prostate
CAKI-1 renal = tested on: CAKI-1 renal
M14 melanoma = tested on: M14 melanoma
PC-3 prostate = tested on: PC-3 prostate
MCF7 breast = tested on: MCF7 breast
HL-60(TB) leukemia = tested on: HL-60(TB) leukemia
EKVX NSCLC = tested on: EKVX NSCLC
RPMI-8226 leukemia = tested on: RPMI-8226 leukemia
SK-MEL-5 melanoma = tested on: SK-MEL-5 melanoma
SR leukemia = tested on: SR leukemia
NCI-H23 lung = tested on: NCI-H23 lung
CCRF-CEM leukemia = tested on: CCRF-CEM leukemia
SK-MEL-28 melanoma = tested on: SK-MEL-28 melanoma
A498 renal = tested on: A498 renal
HCT-15 colon = tested on: HCT-15 colon
UACC-257 melanoma = tested on: UACC-257 melanoma
HCT-116 colon = tested on: HCT-116 colon
T-47D breast = tested on: T-47D breast
U251 CNS = tested on: U251 CNS
RXF 393 renal = tested on: RXF 393 renal
UACC-62 melanoma = tested on: UACC-62 melanoma
IGROV1 ovarian = tested on: IGROV1 ovarian
MDA-MB-231 breast = tested on: MDA-MB-231 breast
NCI-H460 lung = tested on: NCI-H460 lung
786-0 renal = tested on: 786-0 renal
HOP-92 NSCLC = tested on: HOP-92 NSCLC
SF-539 CNS = tested on: SF-539 CNS
SW-620 colon = tested on: SW-620 colon
SF-295 CNS = tested on: SF-295 CNS
LOX IMVI melanoma = tested on: LOX IMVI melanoma
HS 578T breast = tested on: HS 578T breast
COLO 205 colon = tested on: COLO 205 colon
OVCAR-4 ovarian = tested on: OVCAR-4 ovarian
NCI-H522 lung = tested on: NCI-H522 lung
OVCAR-5 ovarian = tested on: OVCAR-5 ovarian
SN12C renal = tested on: SN12C renal
OVCAR-3 ovarian = tested on: OVCAR-3 ovarian
MOLT-4 leukemia = tested on: MOLT-4 leukemia
A549 NSCLC = tested on: A549 NSCLC

Structure (SMILES): CCOC(=O)C(C)c1nc2cc3cccnc3c(Cl)c2[nH]c1=O (stereo not drawn)
- TGI (ACHN renal): > 100 µM
- TGI (HCC-2998 colon): > 100 µM
- TGI (SNB-75 CNS): > 100 µM
- TGI (NCI/ADR-RES ovarian): > 100 µM
- TGI (BT-549 breast): > 100 µM
- TGI (TK-10 renal): > 100 µM
- TGI (NCI-H226 lung): > 100 µM
- TGI (K-562 leukemia): > 100 µM
- TGI (OVCAR-8 ovarian): > 100 µM
- TGI (KM12 colon): > 100 µM
- TGI (HOP-62 NSCLC): > 100 µM
- TGI (SK-OV-3 ovarian): > 100 µM
- TGI (SNB-19 CNS): > 100 µM
- TGI (SK-MEL-2 melanoma): > 100 µM
- TGI (HT29 colon): > 100 µM
- TGI (UO-31 renal): > 100 µM
- TGI (MDA-MB-435): > 100 µM
- TGI (SF-268 CNS): > 100 µM
- TGI (DU-145 prostate): 50 µM
- TGI (CAKI-1 renal): > 100 µM
- TGI (M14 melanoma): > 100 µM
- TGI (PC-3 prostate): > 100 µM
- TGI (MCF7 breast): > 100 µM
- TGI (HL-60(TB) leukemia): > 100 µM
- TGI (EKVX NSCLC): > 100 µM
- TGI (RPMI-8226 leukemia): > 100 µM
- TGI (SK-MEL-5 melanoma): > 100 µM
- TGI (SR leukemia): > 100 µM
- TGI (NCI-H23 lung): > 100 µM
- TGI (CCRF-CEM leukemia): > 100 µM
- TGI (SK-MEL-28 melanoma): > 100 µM
- TGI (A498 renal): > 100 µM
- TGI (HCT-15 colon): > 100 µM
- TGI (UACC-257 melanoma): > 100 µM
- TGI (HCT-116 colon): > 100 µM
- TGI (T-47D breast): > 100 µM
- TGI (U251 CNS): > 100 µM
- TGI (RXF 393 renal): > 100 µM
- TGI (UACC-62 melanoma): > 100 µM
- TGI (IGROV1 ovarian): > 100 µM
- TGI (MDA-MB-231 breast): > 100 µM
- TGI (NCI-H460 lung): > 100 µM
- TGI (786-0 renal): > 100 µM
- TGI (HOP-92 NSCLC): > 100 µM
- TGI (SF-539 CNS): > 100 µM
- TGI (SW-620 colon): > 100 µM
- TGI (SF-295 CNS): > 100 µM
- TGI (LOX IMVI melanoma): > 100 µM
- TGI (HS 578T breast): > 100 µM
- TGI (COLO 205 colon): > 100 µM
- TGI (OVCAR-4 ovarian): > 100 µM

Structure (SMILES): CC(C)(O)[C@@H]1CC[C@](C)(C2[C@@H](O)C[C@@]3(C)C4C[C@H](OC5OCC(O)C(O)C5O)[C@H]5C(C)(C)[C@@H](OC6OCC(O)C(O)C6OC6OCC(O)C(O)C6O)CC[C@@]56C[C@@]46CC[C@]23C)O1 (stereo partly drawn)
- TGI (HCC-2998 colon): > 100 µM
- TGI (NCI-H522 lung): > 100 µM
- TGI (SNB-75 CNS): > 100 µM
- TGI (NCI/ADR-RES ovarian): > 100 µM
- TGI (BT-549 breast): > 100 µM
- TGI (NCI-H226 lung): > 100 µM
- TGI (K-562 leukemia): > 100 µM
- TGI (OVCAR-8 ovarian): > 100 µM
- TGI (KM12 colon): > 100 µM
- TGI (HOP-62 NSCLC): > 100 µM
- TGI (SK-OV-3 ovarian): > 100 µM
- TGI (SNB-19 CNS): > 100 µM
- TGI (SK-MEL-2 melanoma): > 100 µM
- TGI (HT29 colon): > 100 µM
- TGI (UO-31 renal): > 100 µM
- TGI (OVCAR-5 ovarian): > 100 µM
- TGI (MDA-MB-435): > 100 µM
- TGI (SF-268 CNS): > 100 µM
- TGI (DU-145 prostate): > 100 µM
- TGI (CAKI-1 renal): > 100 µM
- TGI (M14 melanoma): > 100 µM
- TGI (PC-3 prostate): > 100 µM
- TGI (SN12C renal): > 100 µM
- TGI (MCF7 breast): > 100 µM
- TGI (HL-60(TB) leukemia): > 100 µM
- TGI (EKVX NSCLC): > 100 µM
- TGI (RPMI-8226 leukemia): > 100 µM
- TGI (SK-MEL-5 melanoma): > 100 µM
- TGI (SR leukemia): > 100 µM
- TGI (NCI-H23 lung): > 100 µM
- TGI (CCRF-CEM leukemia): > 100 µM
- TGI (SK-MEL-28 melanoma): > 100 µM
- TGI (A498 renal): > 100 µM
- TGI (HCT-15 colon): > 100 µM
- TGI (HCT-116 colon): > 100 µM
- TGI (T-47D breast): > 100 µM
- TGI (U251 CNS): > 100 µM
- TGI (OVCAR-3 ovarian): > 100 µM
- TGI (RXF 393 renal): > 100 µM
- TGI (UACC-62 melanoma): > 100 µM
- TGI (IGROV1 ovarian): > 100 µM
- TGI (MDA-MB-231 breast): > 100 µM
- TGI (MOLT-4 leukemia): > 100 µM
- TGI (NCI-H460 lung): > 100 µM
- TGI (786-0 renal): > 100 µM
- TGI (A549 NSCLC): > 100 µM
- TGI (SF-539 CNS): > 100 µM
- TGI (SW-620 colon): > 100 µM
- TGI (SF-295 CNS): > 100 µM
- TGI (HS 578T breast): > 100 µM
- TGI (COLO 205 colon): > 100 µM
- TGI (OVCAR-4 ovarian): > 100 µM
